What is called EC50 is the concentration that produces a half-maximal response. In general, Ki refers to a measure of affinity in units of concentration, obtained from inhibition or displacement.

In assay [1] the target is rat CB2 receptors (HEK cells) (Rattus norvegicus (Rat), UniProt Q9QZN9). Kind of assay: rat CB2 cyclase functional assay (HitHunter cAMP). The format is cell-based.
A further assay concerns the target rat CB2 receptors (Rattus norvegicus (Rat), UniProt Q9QZN9). Kind of assay: rat CB2 radioligand binding assay ([3H]CP 55,940 competition). The note with it: HEK293 membranes, 0.5 nM [3H]CP 55,940. Put shortly:
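Membranes from HEK293 cells stably expressing rat CB2 (20 μg protein/well) were incubated 45 min at 30 °C with 0.5 nM [3H]CP 55,940 and five displacer concentrations, in pH 7.4 Tris buffer with 0.5 mg/mL BSA. Bound radioactivity was measured by filtration. Nonspecific binding was defined with 10 μM unlabeled CP 55,940.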

Assay [2] addresses rat CB1 receptors (HEK cells) (Rattus norvegicus (Rat), UniProt P20272). Kind of assay: rat CB1 cyclase functional assay (HitHunter cAMP). The format is cell-based.
The next assay concerns the target human CB2 receptors (Homo sapiens (Human), UniProt P34972). Put plainly: human CB2 radioligand binding assay ([3H]CP 55,940 competition). As to conditions: HEK293 membranes, 0.5 nM [3H]CP 55,940; read-out: human CB2 (Ki). Put shortly:
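Displacement of 0.5 nM [3H]CP 55,940 over 0.01 nM-10 μM test compound, measured on human CB2 membranes from stably transfected HEK293 cells. Incubation 90 min at 30 °C in Tris/EDTA/MgCl2/BSA, pH 7.4, then filter-bound radioactivity counted; 10 μM unlabeled CP 55,940 defined nonspecific binding.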

[3] abbreviates: HEK cells, forskolin 18 μM, read-out: rat CB2 cyclase (EC50).

Like-named read-outs stand apart in the source and are kept apart here. A value given as a limit tells only on which side of the number the result lay.

Chain of human CB2 receptors (P34972 whole entry): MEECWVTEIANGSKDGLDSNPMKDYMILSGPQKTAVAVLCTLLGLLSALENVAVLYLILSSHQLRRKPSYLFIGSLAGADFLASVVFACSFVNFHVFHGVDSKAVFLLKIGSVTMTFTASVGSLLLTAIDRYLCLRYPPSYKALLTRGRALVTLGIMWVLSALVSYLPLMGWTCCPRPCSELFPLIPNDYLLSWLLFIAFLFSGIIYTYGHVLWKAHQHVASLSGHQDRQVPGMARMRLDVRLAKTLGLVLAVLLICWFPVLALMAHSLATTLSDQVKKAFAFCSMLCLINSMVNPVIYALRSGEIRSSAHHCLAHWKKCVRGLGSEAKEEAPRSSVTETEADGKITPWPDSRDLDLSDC
Chain of rat CB1 receptors (HEK cells) (P20272 whole entry): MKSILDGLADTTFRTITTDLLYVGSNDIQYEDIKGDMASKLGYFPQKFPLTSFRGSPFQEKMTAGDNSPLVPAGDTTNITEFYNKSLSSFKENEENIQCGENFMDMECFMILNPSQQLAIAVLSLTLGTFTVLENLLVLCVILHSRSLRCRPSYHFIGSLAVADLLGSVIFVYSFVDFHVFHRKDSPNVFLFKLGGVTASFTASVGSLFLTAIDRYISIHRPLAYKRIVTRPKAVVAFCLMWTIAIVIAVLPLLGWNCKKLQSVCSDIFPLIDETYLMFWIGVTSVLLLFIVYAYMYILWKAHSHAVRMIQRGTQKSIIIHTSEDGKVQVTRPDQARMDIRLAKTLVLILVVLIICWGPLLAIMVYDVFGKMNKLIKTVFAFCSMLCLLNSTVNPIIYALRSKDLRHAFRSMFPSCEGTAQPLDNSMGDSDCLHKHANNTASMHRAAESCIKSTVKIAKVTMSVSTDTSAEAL

For the compound `CN1CC[C@H](COc2ccc(C(F)(F)F)cc2C(=O)/N=c2\sc(C(C)(C)C)cn2C[C@H]2CCCO2)C1` [Example 31, N-[(2Z)-5-tert-butyl-3-[(2R)-tetrahydrofuran-2-ylmethyl]-1,3-thiazol-2(3H)-ylidene]-2-{[(3 S)-1-methylpyrrolidin-3-yl]methoxy}-5-(trifluoromethyl)benzamide], the EC50 in assay [1] came out at 3.58 nM; in assay [2] it was 10700 nM. The Ki on rat CB2 receptors turned out to be 84 nM; on human CB2 receptors it was 92 nM.
`CN1CCC[C@H]1COc1ccc(C(F)(F)F)cc1C(=O)/N=c1\sc(C(C)(C)C)cn1C[C@H]1CCCO1` [Example 24, N-[(2Z)-5-tert-butyl-3-[(2R)-tetrahydrofuran-2-ylmethyl]-1,3-thiazol-2(3H)-ylidene]-2-{[(2S)-1-methylpyrrolidin-2-yl]methoxy}-5-(trifluoromethyl)benzamide]: the EC50 amounted to 0.09 nM in assay [1] (setting [3]) and 1990 nM in assay [2]. Also, the values for the Ki at rat CB2 receptors and on human CB2 receptors were 3.4 nM and 4.6 nM, respectively.
As for `CC(C)(C)c1cn(C[C@H]2CCCO2)/c(=N/C(=O)c2cc(C(F)(F)F)ccc2OCc2ccccn2)s1` [Example 18, N-[(2Z)-5-tert-butyl-3-[(2R)-tetrahydrofuran-2-ylmethyl]-1,3-thiazol-2(3H)-ylidene]-2-(pyridin-2-ylmethoxy)-5-(trifluoromethyl)benzamide], the EC50 in assay [1] (setting [3]) was 1.02 nM; in assay [2] it was above 27000 nM. Further, the inhibition constant (Ki) on rat CB2 receptors was determined as 6 nM; on human CB2 receptors, 20 nM.
With `CC(C)(C)c1cn(C[C@H]2CCCO2)/c(=N/C(=O)c2cc(C(F)(F)F)ccc2OC[C@@H]2CCCO2)s1` [Example 23, N-[(2Z)-5-tert-butyl-3-[(2R)-tetrahydrofuran-2-ylmethyl]-1,3-thiazol-2(3H)-ylidene]-2-[(2S)-tetrahydrofuran-2-ylmethoxy]-5-(trifluoromethyl)benzamide], the results for the EC50 in assay [1] and in assay [2] were 0.14 nM and 941 nM, respectively. Further, the inhibition constant (Ki) on rat CB2 receptors stood at 0.3 nM; at human CB2 receptors it was 0.5 nM.
Consider `CC(C)(O)CCOc1ccc(C(F)(F)F)cc1C(=O)/N=c1\sc(C(C)(C)C)cn1C[C@H]1CCCO1` [Example 50, N-[(2Z)-5-tert-butyl-3-[(2R)-tetrahydrofuran-2-ylmethyl]-1,3-thiazol-2(3H)-ylidene]-2-(3-hydroxy-3-methylbutoxy)-5-(trifluoromethyl)benzamide], for which the concentration for a half-maximal effect (EC50) in assay [1] was found to be 1.21 nM; in assay [2], 1870 nM. For the same compound, the inhibition constant Ki at rat CB2 receptors worked out at 0.5 nM; on human CB2 receptors, 1.3 nM.
Turning to `CN1CC(COc2ccc(C(F)(F)F)cc2C(=O)/N=c2\sc(C(C)(C)C)cn2C[C@H]2CCCO2)C1` [Example 12, N-[(2Z)-5-tert-butyl-3-[(2R)-tetrahydrofuran-2-ylmethyl]-1,3-thiazol-2(3H)-ylidene]-2-[(1-methylazetidin-3-yl)methoxy]-5-(trifluoromethyl)benzamide], the results for the EC50 in assay [1] (setting [3]) and in assay [2] were 2.07 nM and 10800 nM, respectively. Besides, the Ki came to 28 nM at rat CB2 receptors and 208 nM at human CB2 receptors.
In the case of `CC(C)(C)c1cn(C[C@H]2CCCO2)/c(=N/C(=O)c2cc(C(F)(F)F)ccc2OC[C@@H]2CNCCO2)s1` [Example 66, N-[(2Z)-5-tert-butyl-3-[(2R)-tetrahydrofuran-2-ylmethyl]-1,3-thiazol-2(3H)-ylidene]-2-[(2S)-morpholin-2-ylmethoxy]-5-(trifluoromethyl)benzamide], the concentration for a half-maximal effect (EC50) in assay [1] stood at 0.37 nM; in assay [2], 5050 nM. The Ki was found to be 5.1 nM on rat CB2 receptors and 21 nM on human CB2 receptors.
With `Cn1ccnc1COc1ccc(C(F)(F)F)cc1C(=O)/N=c1\sc(C(C)(C)C)cn1C[C@H]1CCCO1` [Example 17, N-[(2Z)-5-tert-butyl-3-[(2R)-tetrahydrofuran-2-ylmethyl]-1,3-thiazol-2(3H)-ylidene]-2-[(1-methyl-1H-imidazol-2-yl)methoxy]-5-(trifluoromethyl)benzamide], the concentration for a half-maximal effect (EC50) in assay [1] (setting [3]) is 2.75 nM; in assay [2], above 27000 nM. Moreover, the values for the inhibitory constant (Ki) on rat CB2 receptors and at human CB2 receptors were 15 nM and 53 nM, respectively.
`CC(C)(C)c1cn(C[C@H]2CCCO2)/c(=N/C(=O)c2cc(C(F)(F)F)ccc2OC[C@H]2CCCO2)s1` [Example 22, N-[(2Z)-5-tert-butyl-3-[(2R)-tetrahydrofuran-2-ylmethyl]-1,3-thiazol-2(3H)-ylidene]-2-[(2R)-tetrahydrofuran-2-ylmethoxy]-5-(trifluoromethyl)benzamide]: the half-maximal effective concentration (EC50) in assay [1] was found to be 0.07 nM; in assay [2], 3230 nM. Moreover, the Ki came out at 0.5 nM at rat CB2 receptors and 3 nM at human CB2 receptors.
Turning to `CN1C(=O)CC[C@H]1COc1ccc(C(F)(F)F)cc1C(=O)/N=c1\sc(C(C)(C)C)cn1C[C@H]1CCCO1` [Example 43, N-[(2Z)-5-tert-butyl-3-[(2R)-tetrahydrofuran-2-ylmethyl]-1,3-thiazol-2(3H)-ylidene]-2-{[(2S)-1-methyl-5-oxopyrrolidin-2-yl]methoxy}-5-(trifluoromethyl)benzamide], the EC50 in assay [1] (setting [3]) amounted to 2.09 nM; in assay [2], 6560 nM. The Ki is 3.3 nM at rat CB2 receptors and 62 nM on human CB2 receptors.
In the case of `CN1CCC[C@@H]1COc1ccc(C(F)(F)F)cc1C(=O)/N=c1\sc(C(C)(C)C)cn1C[C@H]1CCCO1` [Example 26, N-[(2Z)-5-tert-butyl-3-[(2R)-tetrahydrofuran-2-ylmethyl]-1,3-thiazol-2(3H)-ylidene]-2-{[(2R)-1-methylpyrrolidin-2-yl]methoxy}-5-(trifluoromethyl)benzamide], the EC50 in assay [1] (setting [3]) is 2.18 nM; in assay [2], 11200 nM. Besides, the Ki at rat CB2 receptors is 70 nM; on human CB2 receptors, 206 nM.
In the case of `CC(C)(C)c1cn(C[C@H]2CCCO2)/c(=N/C(=O)c2cc(C(F)(F)F)ccc2OC[C@@H]2CCCCN2)s1` [Example 4], the EC50 in assay [1] (setting [3]) turned out to be 0.4 nM; in assay [2] (HEK cells, forskolin 37 μM, read-out: rCB1 cyclase (EC50)), 395 nM. The Ki at rat CB2 receptors is 0.6 nM; at human CB2 receptors, 0.7 nM.
Regarding `CC(C)(C)c1cn(C[C@H]2CCCO2)/c(=N/C(=O)c2cc(C(F)(F)F)ccc2OCCNCCO)s1` [Example 58, N-[(2Z)-5-tert-butyl-3-[(2R)-tetrahydrofuran-2-ylmethyl]-1,3-thiazol-2(3H)-ylidene]-2-{2-[(2-hydroxyethyl)amino]ethoxy}-5-(trifluoromethyl)benzamide], the half-maximal effective concentration (EC50) in assay [1] worked out at 0.18 nM; in assay [2], 2580 nM. In addition, the inhibition constant Ki was 10 nM at rat CB2 receptors and 34 nM on human CB2 receptors.
As to `CN1CCCC[C@@H]1COc1ccc(C(F)(F)F)cc1C(=O)/N=c1\sc(C(C)(C)C)cn1C[C@H]1CCCO1` [Example 7, N-[(2Z)-5-tert-butyl-3-[(2R)-tetrahydrofuran-2-ylmethyl]-1,3-thiazol-2(3H)-ylidene]-2-{[(2R)-1-methylpiperidin-2-yl]methoxy}-5-(trifluoromethyl)benzamide], the figures for the EC50 in assay [1] (setting [3]) and in assay [2] were 0.38 nM and 4700 nM, respectively. The values for the Ki at rat CB2 receptors and on human CB2 receptors were 19 nM and 33 nM, respectively.
Consider `CN1CC[C@@H](COc2ccc(C(F)(F)F)cc2C(=O)/N=c2\sc(C(C)(C)C)cn2C[C@H]2CCCO2)C1` [Example 30, N-[(2Z)-5-tert-butyl-3-[(2R)-tetrahydrofuran-2-ylmethyl]-1,3-thiazol-2(3H)-ylidene]-2-{[(3R)-1-methylpyrrolidin-3-yl]methoxy}-5-(trifluoromethyl)benzamide], for which the results for the concentration for a half-maximal effect (EC50) in assay [1] and in assay [2] were 4.98 nM and 12100 nM, respectively. Besides, the values for the Ki on rat CB2 receptors and on human CB2 receptors were 29 nM and 141 nM, respectively.

(Values after US8846730B2, “Compounds as cannabinoid receptor ligands” (priority 2008, dated 2014).)
